Consider 29 compounds from patent US20080119467A1, “Purine Derivatives, Compositions Containing Them and Use Thereof” (AVENTIS PHARMA S.A., priority 2005, published 2008).

Where a name gives a salt, the structure may show the parent alone.

In one series the target is Hsp82 (Saccharomyces cerevisiae, UniProt P02829). Briefly: Inhibition of the ATPase activity of Hsp82 in the enzymatic coupling system (pyruvate kinase / lactate dehydrogenase). The format is biochemical. To be noted: ATPase activity of Hsp82, PK/LDH enzymatic coupling system, 1 μM Hsp82, 250 μM ATP, 37° C., 340 nm. An excerpt: The formation of ADP due to the ATPase activity of Hsp82 was utilized for developing another method for evaluating the enzymatic activity of this enzyme by the application of an enzymatic coupling system employing pyruvate kinase (PK) and lactate dehydrogenase (LDH). In this spectrophotometric method of the kinetic type, the PK catalyzes the formation of ATP and pyruvate from phosphenol-pyruvate (PEP) and of ADP produced by HSP82. The pyruvate formed, which is a substrate of LDH, is then converted to lactate in the presence of NADH. In this case, the decrease in the concentration of NADH, measured from the decrease in absorbance at a wavelength of 340 nm, is proportional to the concentration of ADP produced by HSP82. The test products are incubated in a reaction volume of 100 μl of compound buffer of 100 mM Hepes-NaOH (pH 7.5), 5 mM MgCl2, 1 mM DTT, 150 mM KCl, 0.3 mM NADH, 2.5 mM PEP and 250 μM ATP. This mixture is preincubated at 37° C. for 30 min before adding 3.77 units of LDH and 3.77 units of PK. The reaction is initiated by addition of the product to be evaluated, at variable concentrations, and of Hsp82, at a concentration of 1 μM. Then the enzymatic activity of Hsp82 is measured, continuously, in a microplate reader, at 37° C., at a wavelength of 340 nm. The initial rate of the reaction is obtained by measuring the slope of the tangent of the recorded curve to the origin. The enzymatic activity is expressed as μM of ADP formed per minute. The effect of the various products tested is expressed as percentage inhibition of the ATPase activity. The inhibitory activities on the ATPase activity of Hsp82 obtained with the products of the invention in the enzymatic coupling system are presented in the following table, according to the following criteria of inhibition of the ATPase activity of Hsp82: […]
Sequence of Hsp82 (P02829 whole entry): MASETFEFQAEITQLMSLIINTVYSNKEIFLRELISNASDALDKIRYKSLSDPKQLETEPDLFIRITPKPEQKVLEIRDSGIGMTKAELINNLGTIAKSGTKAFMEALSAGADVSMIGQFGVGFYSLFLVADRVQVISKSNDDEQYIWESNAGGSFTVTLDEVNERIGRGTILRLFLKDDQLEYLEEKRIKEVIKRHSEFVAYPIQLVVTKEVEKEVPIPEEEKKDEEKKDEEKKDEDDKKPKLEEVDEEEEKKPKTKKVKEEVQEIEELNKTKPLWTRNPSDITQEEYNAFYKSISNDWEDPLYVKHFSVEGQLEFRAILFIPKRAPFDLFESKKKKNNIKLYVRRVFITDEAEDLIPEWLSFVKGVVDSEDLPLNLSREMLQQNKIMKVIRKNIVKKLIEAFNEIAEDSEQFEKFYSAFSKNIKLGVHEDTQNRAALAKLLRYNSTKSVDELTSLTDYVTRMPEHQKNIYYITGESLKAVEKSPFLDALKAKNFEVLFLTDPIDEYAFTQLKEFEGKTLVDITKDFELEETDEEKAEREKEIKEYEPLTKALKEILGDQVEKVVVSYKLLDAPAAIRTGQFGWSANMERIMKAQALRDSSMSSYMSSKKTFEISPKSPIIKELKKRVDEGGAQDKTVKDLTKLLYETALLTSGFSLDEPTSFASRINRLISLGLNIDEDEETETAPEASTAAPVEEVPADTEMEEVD
As usually defined, the IC50 is the concentration that gives 50% inhibition. Lower therefore signals inhibition by little substance. `Cl.Clc1nc(N2CCN(Cc3ccccc3)CC2)c2nc[nH]c2n1` [Example 1, 2-Chloro-6-[4-(phenylmethyl)-piperazin-1-yl]-1H-purine monohydrochloride] came in with an IC50 of under 1 µM.
The same measure, in the same setting: then `COc1cc(C(=O)N2CCN(c3nc(Cl)nc4[nH]cnc34)CC2)cc(OC)c1OC` [Example 14, 2-chloro-6-[4-(3,4,5-trimethoxy-phenyl)carbonyl-piperazin-1-yl]1H-purine], with 10 to 100 µM.
The compound `Fc1nc(N2CCN(c3ccccn3)CC2)c2nc[nH]c2n1` [Example 23, 2-Fluoro-[4-(pyridin-2-yl)-piperazin-1-yl]1H-purine] had a half-maximal inhibitory concentration (IC50) of 1 to 10 µM.
On the same count and under the same terms, as for `Clc1nc(N2CCN(c3ccc4ccccc4n3)CC2)c2nc[nH]c2n1` [Example 21, 2-Chloro-6-[4-(quinolein-2-yl)-piperazin-1-yl]-1H-purine monohydrochloride], the figure is under 1 µM.
The same measure, in the same setting: as for `Clc1nc(N2CCSCC2)c2nc[nH]c2n1` [Example 4, 2-chloro-6-(thiamorpholin-4-yl)-1H-purine], the figure is 1 to 10 µM; as for `NC(=O)c1cccc(N2CCN(c3nc(Cl)nc4[nH]cnc34)CC2)c1` [Example 12, 2-chloro-6-[4-(3-carboxamido-phenyl)-piperazin-1-yl]1H-purine], 1 to 10 µM.
The same measure, in the same setting: as for `Clc1nc(N2CCOCC2)c2nc[nH]c2n1` [Example 3, 2-chloro-6-(morpholin-4-yl)-1H-purine], the figure is 1 to 10 µM; as for `Clc1nc(N2CCN(c3ccccn3)CC2)c2cc[nH]c2n1` [Example 29, 2-Chloro-4-(4-pyridin-2-yl-piperazin-1-yl)-7H-pyrrolo[2,3-d]pyrimidine], under 1 µM.
As for `FC(F)(F)c1ccccc1N1CCN(c2nc(Cl)nc3[nH]cnc23)CC1` [Example 22, 2-chloro-6-[4-(2-trifluoromethyl-phenyl)-piperazin-1-yl]1H-purine], the IC50 lay in the range of 1 to 10 µM.
Same read-out and setting: then `Clc1nc(N2CCN(c3cccnc3)CC2)c2nc[nH]c2n1` [Example 11, 2-chloro-6-[4-(pyridin-3-yl)-piperazin-1-yl]1H-purine], with 1 to 10 µM; and `NC(=O)c1cccnc1N1CCN(c2nc(Cl)nc3[nH]cnc23)CC1` [Example 27, 2-[4-(2-Chloro-9H-purin-6-yl)-piperazin-1-yl]-nicotinamide], with under 1 µM.
The same measure, in the same setting: then `Clc1nc(N2CCN(Cc3ccccc3)CC2)c2cc[nH]c2n1` [Example 28, 4-(4-Phenylmethyl-piperazin-1-yl)-2-chloro-7H-pyrrolo[2,3-d]pyrimidine], with 1 to 10 µM; and `FC(F)(F)c1cccnc1N1CCN(c2nc(Cl)nc3[nH]cnc23)CC1` [Example 24, 2-Chloro-6-[4-(3-trifluoromethyl-pyridin-2-yl)-piperazin-1-yl]-9H-purine], with 1 to 10 µM; and `Clc1nc(N2CCN(C(c3ccccc3)c3ccccc3)CC2)c2nc[nH]c2n1` [Example 6, 2-chloro-6-[4-(diphenylmethyl)-piperazin-1-yl]1H-purine], with 1 to 10 µM.
On the same count and under the same terms, then `Clc1nc(N2CCCCC2)c2nc[nH]c2n1` [Example 5, 2-chloro-6-(piperidin-1-yl)-1H-purine], with under 1 µM; and `Clc1nc(N2CCN(c3ccccn3)CC2)c2nc[nH]c2n1` [Example 2, 2-chloro-6-[4-(pyridin-2-yl)-piperazin-1-yl]1H-purine], with under 1 µM.
Take `Clc1cccc(N2CCN(c3nc(Cl)nc4[nH]cnc34)CC2)c1` [Example 13, 2-Chloro-6-[4-(3-chloro-phenyl)-piperazin-1-yl]1H-purine]: the IC50 was in the range of 10 to 100 µM.
In turn, `Clc1nc(N2CCC(Nc3ccccc3)CC2)c2nc[nH]c2n1` [Example 16, 2-Chloro-6-[4-(phenylamino)-piperidin-1-yl]-1H-purine monohydrochloride] returned a concentration for half-maximal inhibition (IC50) of under 1 µM.
Still for that read-out and setting: as for `COc1ccccc1N1CCN(c2nc(Cl)nc3[nH]cnc23)CC1` [Example 20, 2-Chloro-6-[4-(2-methoxy-phenyl)-piperazin-1-yl]-1H-purine monohydrochloride], the figure is 10 to 100 µM; as for `Cl.Clc1cc(N2CCN(c3ccccn3)CC2)c2nc[nH]c2n1` [Example 30, 5-Chloro-7-(4-pyridin-2-yl-piperazin-1-yl)-3H-imidazo[4,5-b]pyridine monohydrochloride], under 1 µM; as for `NC(=O)c1ccccc1N1CCN(c2cc(Cl)nc3[nH]cnc23)CC1` [Example 31, 2-[4-(5-Chloro-3H-imidazo[4,5-b]pyridin-7-yl)-piperazin-1-yl]-benzamide], under 1 µM.
`Cc1cccc(N2CCN(c3nc(Cl)nc4[nH]cnc34)CC2)n1` [Example 18, 2-Chloro-6-[4-(6-methyl-pyridin-2-yl)-piperazin-1-yl]-1H-purine monohydrochloride] gave an IC50 of 1 to 10 µM.
The same measure, in the same setting: as for `Clc1nc(NC2CCCC2)c2nc[nH]c2n1` [Example 7, 2-chloro-6-cyclopentylamino-1H-purine], the figure is 10 to 100 µM; as for `COc1ccc(CN2CCN(c3nc(Cl)nc4[nH]cnc34)CC2)cc1OC` [Example 10, 2-chloro-6-[4-(3,4-dimethoxy-phenyl)methyl-piperazin-1-yl]1H-purine], 10 to 100 µM.
Same read-out and setting: then `Clc1nc(N2CCN(c3ccccc3)CC2)c2nc[nH]c2n1` [Example 9, 2-Chloro-6-(4-phenyl-piperazin-1-yl)-1H-purine monohydrochloride], with 1 to 10 µM.
Still for that read-out and setting: as for `OCc1cc(F)ccc1N1CCN(c2nc(Cl)nc3[nH]cnc23)CC1` [Example 26, {2-[4-(2-Chloro-9H-purin-6-yl)-piperazin-1-yl]-5-fluoro-phenyl}-methanol], the figure is under 1 µM.
As for `O=C(c1ccccc1)N1CCN(c2nc(Cl)nc3[nH]cnc23)CC1` [Example 15, 2-chloro-6-[4-(phenyl)carbonyl-piperazin-1-yl]1H-purine], the half-maximal inhibitory concentration (IC50) fell in the range of 1 to 10 µM.
The same measure, in the same setting: then `Clc1nc(N2CCN(c3ncccn3)CC2)c2nc[nH]c2n1` [Example 19, 2-Chloro-6-[4-(pyrimidin-2-yl)-piperazin-1-yl]-1H-purine monohydrochloride], with under 1 µM; and `Clc1nc(N2CCC(Cc3ccccc3)CC2)c2nc[nH]c2n1` [Example 8, 2-Chloro-6-[4-(phenylmethyl)-piperidin-1-yl]-1H-purine monohydrochloride], with under 1 µM.

System in another series: not given
Experiment: not given
Settings: not given
The term melting point denotes the temperature of the solid-liquid transition. The compound `Cl.Clc1nc(N2CCN(Cc3ccccc3)CC2)c2nc[nH]c2n1` [Example 1, 2-Chloro-6-[4-(phenylmethyl)-piperazin-1-yl]-1H-purine monohydrochloride] showed a melting point of 264 to 266 °C.
Same read-out and setting: then `Fc1nc(N2CCN(c3ccccn3)CC2)c2nc[nH]c2n1` [Example 23, 2-Fluoro-[4-(pyridin-2-yl)-piperazin-1-yl]1H-purine], with over 260 °C; and `Clc1nc(N2CCN(Cc3ccccc3)CC2)c2cc[nH]c2n1` [Example 28, 4-(4-Phenylmethyl-piperazin-1-yl)-2-chloro-7H-pyrrolo[2,3-d]pyrimidine], with 250 °C.
The same measure, in the same setting: as for `Clc1cccc(N2CCN(c3nc(Cl)nc4[nH]cnc34)CC2)c1` [Example 13, 2-Chloro-6-[4-(3-chloro-phenyl)-piperazin-1-yl]1H-purine], the figure is over 260 °C; as for `Cl.Clc1cc(N2CCN(c3ccccn3)CC2)c2nc[nH]c2n1` [Example 30, 5-Chloro-7-(4-pyridin-2-yl-piperazin-1-yl)-3H-imidazo[4,5-b]pyridine monohydrochloride], over 260 °C.
